Test results: patent US11524966B1 (Valo Early Discovery, Inc., priority 2017, dated 2022)

Biological target: T1, USP28 (His-tagged USP28-FL-mammalian) (Homo sapiens, UniProt Q96RU2)
T1 construct: Expression of USP28 (1-1077)-TEV-6*His (pTT5 vector); made in house; host or cells: Expi293f cells (pTT5 vector)
T1 sequence (Q96RU2 1-1077): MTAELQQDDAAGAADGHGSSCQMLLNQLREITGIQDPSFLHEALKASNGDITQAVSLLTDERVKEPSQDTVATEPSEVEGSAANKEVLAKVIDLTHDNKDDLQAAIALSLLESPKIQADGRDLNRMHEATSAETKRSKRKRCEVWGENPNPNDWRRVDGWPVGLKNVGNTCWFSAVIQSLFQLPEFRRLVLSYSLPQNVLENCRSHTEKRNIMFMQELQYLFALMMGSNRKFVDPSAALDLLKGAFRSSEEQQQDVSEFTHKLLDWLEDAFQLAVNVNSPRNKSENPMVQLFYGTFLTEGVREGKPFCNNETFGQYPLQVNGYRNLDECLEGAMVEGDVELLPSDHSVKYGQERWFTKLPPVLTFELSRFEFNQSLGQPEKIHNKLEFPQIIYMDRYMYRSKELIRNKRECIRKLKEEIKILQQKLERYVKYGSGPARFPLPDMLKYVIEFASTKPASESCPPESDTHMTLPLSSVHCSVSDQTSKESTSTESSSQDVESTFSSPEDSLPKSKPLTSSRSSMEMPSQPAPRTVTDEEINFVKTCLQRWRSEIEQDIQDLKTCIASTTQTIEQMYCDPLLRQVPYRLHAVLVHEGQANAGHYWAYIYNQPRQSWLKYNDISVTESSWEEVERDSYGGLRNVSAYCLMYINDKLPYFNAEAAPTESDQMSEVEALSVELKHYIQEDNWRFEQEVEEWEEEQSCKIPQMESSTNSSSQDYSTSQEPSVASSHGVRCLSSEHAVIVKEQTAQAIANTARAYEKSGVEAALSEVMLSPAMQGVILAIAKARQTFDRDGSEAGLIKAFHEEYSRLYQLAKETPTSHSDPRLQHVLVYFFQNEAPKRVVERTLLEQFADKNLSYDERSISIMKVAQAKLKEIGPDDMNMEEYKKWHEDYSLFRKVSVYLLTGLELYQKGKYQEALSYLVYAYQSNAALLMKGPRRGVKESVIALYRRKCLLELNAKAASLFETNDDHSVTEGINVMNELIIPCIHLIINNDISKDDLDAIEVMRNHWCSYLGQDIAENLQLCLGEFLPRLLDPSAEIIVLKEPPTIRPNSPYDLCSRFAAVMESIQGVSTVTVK
Assay: Ubiquitin-Rhodamine 110 Assay for USP28 Activity, Example A-1(a)
Format: biochemical
Settings: Ubiquitin-Rhodamine 110 assay, Example A-1(a); read-out: USP28 A-1(a) IC50 range
Method in brief: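 IC50 from 4-parameter logistic fit of percent inhibition versus no-enzyme and DMSO controls; compounds 25 μM to 1.3 nM, 3-fold. Ub-Rh110 cleavage (25 nM, below Km) by […] mammalian-expressed USP28-FL-His ran 45 min at room temperature, stopped with 10 mM citric acid, read ex 485/em 535.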

SMILES | IC50
Cc1ccc2c(N)c(C(=O)N[C@H]3CCc4nc(N5CCNCC5)ccc4C3)sc2n1 (single isomer, unassigned) [Example 23-7] | 1 to 50 nM
Cc1ccc2c(N)c(C(=O)N[C@@H]3CCc4nc(N5CCNCC5)ccc4C3)sc2n1 (single isomer, unassigned) [Example 23-8] | 50 to 200 nM
Cc1ccc2c(N)c(C(=O)N[C@H]3CCc4nc(N5CCN[C@@H](C)C5)ccc4C3)sc2n1 (single isomer, unassigned) [Example 23-15] | 1 to 50 nM
Cc1ccc2c(N)c(C(=O)N[C@H]3CCc4nc(N5CCN[C@H](C)C5)ccc4C3)sc2n1 (single isomer, unassigned) [Example 23-16] | 1 to 50 nM
COC[C@@H]1CN(c2ccc3c(n2)CC[C@H](NC(=O)c2sc4nc(C)ccc4c2N)C3)C[C@@H]1N (single isomer, unassigned) [Example 24-1] | 50 to 200 nM
COC[C@H]1CN(c2ccc3c(n2)CC[C@H](NC(=O)c2sc4nc(C)ccc4c2N)C3)C[C@H]1N (single isomer, unassigned) [Example 24-2] | 50 to 200 nM
Cc1ccc2c(N)c(C(=O)N[C@H]3CCc4nc(N5CCNCC5)c(F)cc4C3)sc2n1 (single isomer, unassigned) [Example 30-1] | 1 to 50 nM
Cc1ccc2c(N)c(C(=O)N[C@@H]3CCc4nc(N5CCNCC5)c(F)cc4C3)sc2n1 (single isomer, unassigned) [Example 30-2] | 200 to 2000 nM
Cc1ccc2c(N)c(C(=O)N[C@@H]3Cc4ccc(N5CCNCC5)nc4C4(CC4)C3)sc2n1 (single isomer, unassigned) [Example 31-3, 3-amino-6-methyl-N-[(6′S)-2-(piperazin-1-yl)-6′,7′-dihydro-5′H-spiro[cyclopropane-1,8′-quinoline]-6′-yl]thieno[2,3-b]pyridine-2-carboxamide] | 50 to 200 nM
Cc1ccc2c(N)c(C(=O)N[C@H]3Cc4ccc(N5CCNCC5)nc4C4(CC4)C3)sc2n1 (single isomer, unassigned) [Example 31-4, 3-amino-6-methyl-N-[(6′R)-2′-(piperazin-1-yl)-6′,7′-dihydro-5′H-spiro[cyclopropane-1,8′-quinoline]-6′-yl]thieno[2,3-b]pyridine-2-carboxamide] | 1 to 50 nM
Cc1ccc2c(N)c(C(=O)N[C@H]3COc4cc(N5C[C@@H]6CCNC[C@@H]65)ccc4C3)sc2n1 (single isomer, unassigned) [Example 33-3] | 1 to 50 nM
Cc1ccc2c(N)c(C(=O)N[C@H]3COc4cc(N5C[C@H]6CCNC[C@H]65)ccc4C3)sc2n1 (single isomer, unassigned) [Example 33-4] | 1 to 50 nM
Cc1cnc2c(N)c(C(=O)N[C@H]3COc4cc(N5CC6CCC(C5)N6)c(F)cc4C3)sc2n1 (single isomer, unassigned) [Example 40] | 1 to 50 nM
Cc1cnc2c(N)c(C(=O)N[C@@H]3COc4cc(N5CC6CCC(C5)N6)c(F)cc4C3)sc2n1 (single isomer, unassigned) [Example 41] | 200 to 2000 nM
Cc1nc2sc(C(=O)N[C@H]3CCc4nc(N5CCNCC5)ccc4C3)c(N)c2s1 [Example 23-9] | 50 to 200 nM
Cc1ccc2c(N)c(C(=O)N[C@H]3CCc4nc(N5CC6CC(C5)N6)ccc4C3)sc2n1 [Example 23-10, 3-amino-N-[(6S)-2-{3,6-diazabicyclo[3.1.1]heptan-3-yl}-5,6,7,8-tetrahydroquinolin-6-yl]-6-methylthieno[2,3-b]pyridine-2-carboxamide] | 200 to 2000 nM
Cc1cnc2c(N)c(C(=O)N[C@H]3CCc4nc(N5CC6CC(C5)N6)ccc4C3)sc2n1 [Example 23-11, 7-amino-N-[(6S)-2-{3,6-diazabicyclo[3.1.1]heptan-3-yl}-5,6,7,8-tetrahydroquinolin-6-yl]-3-methylthieno[2,3-b]pyrazine-6-carboxamide] | 200 to 2000 nM
Cc1ccc2c(N)c(C(=O)N[C@H]3CCc4nc(N5CC6CCC(C5)N6)ccc4C3)sc2n1 [Example 23-12, 3-amino-N-[(6S)-2-{3,8-diazabicyclo[3.2.1]octan-3-yl}-5,6,7,8-tetrahydroquinolin-6-yl]-6-methylthieno[2,3-b]pyridine-2-carboxamide] | 1 to 50 nM
Cc1cnc2c(N)c(C(=O)N[C@H]3CCc4nc(N5CC6CCC(C5)N6)ccc4C3)sc2n1 [Example 23-13, 7-amino-N-{(6S)-2-{3,8-diazabicyclo[3.2.1]octan-3-yl}-5,6,7,8-tetrahydroquinolin-6-yl]-3-methylthieno[2,3-b]pyrazine-6-carboxamide] | 1 to 50 nM
Cc1cc(C)c2c(N)c(C(=O)N[C@H]3CCc4nc(N5CCNCC5)ccc4C3)sc2n1 [Example 23-14, 3-amino-4,6-dimethyl-N-[(6S)-2-(piperazin-1-yl)-5,6,7,8-tetrahydroquinolin-6-yl]thieno[2,3-b]pyridine-2-carboxamide] | 1 to 50 nM
Cc1ccc2c(N)c(C(=O)N[C@H]3CCc4nc(N5CCNCC5)cc(F)c4C3)sc2n1 [Example 23-17, 3-amino-N-[(6S)-4-fluoro-2-(piperazin-1-yl)-5,6,7,8-tetrahydroquinolin-6-yl]-6-methylthieno[2,3-b]pyridine-2-carboxamide] | 1 to 50 nM
Cc1ccc2c(N)c(C(=O)N[C@H]3CCc4nc(N5CC6CCC(C5)N6)cc(F)c4C3)sc2n1 [Example 23-18, N-((6S)-2-(3,8-diazabicyclo[3.2.1]octan-3-yl)-4-fluoro-5,6,7,8-tetrahydroquinolin-6-yl)-3-amino-6-methylthieno[2,3-b]pyridine-2-carboxamide] | 1 to 50 nM
Cc1ccc2c(N)c(C(=O)N[C@H]3CCc4nc(N5C[C@@H](N)[C@H](C(F)F)C5)ccc4C3)sc2n1 [Example 25, 3-Amino-N-[(6S)-2-[(3S,4R)-3-amino-4-(difluoromethyl)pyrrolidin-1-yl]-5,6,7,8-tetrahydroquinolin-6-yl]-6-methylthieno[2,3-b]pyridine-2-carboxamide] | 50 to 200 nM
Cc1ccc2c(N)c(C(=O)N[C@H]3COc4cc(C5(C#N)CCS(=O)(=O)CC5)ccc4C3)sc2n1 [Example 34, 3-amino-N-[(3R)-7-(4-cyano-1,1-dioxo-1λ6-thian-4-yl)-3,4-dihydro-2H-1-benzopyran-3-yl]-6-methylthieno[2,3-b]pyridine-2-carboxamide] | 1 to 50 nM
Cc1ccc2c(N)c(C(=O)N[C@H]3COc4c(F)c(N5CCNCC5)c(F)c(F)c4C3)sc2n1 [Example 35, 3-amino-6-methyl-N-[(3R)-5,6,8-trifluoro-7-(piperazin-1-yl)-3,4-dihydro-2H-1-benzopyran-3-yl]thieno[2,3-b]pyridine-2-carboxamide] | 1 to 50 nM
CCc1cnc2sc(C(=O)N[C@H]3COc4cc(N5CCNCC5)ccc4C3)c(N)c2n1 [Example 36, (R)-7-amino-2-ethyl-N-(7-(piperazin-1-yl)chroman-3-yl)thieno[2,3-b]pyrazine-6-carboxamide] | 200 to 2000 nM
CCc1cnc2sc(C(=O)N[C@@H]3COc4cc(N5CCNCC5)ccc4C3)c(N)c2n1 [Example 37, (S)-7-amino-2-ethyl-N-(7-(piperazin-1-yl)chroman-3-yl)thieno[2,3-b]pyrazine-6-carboxamide] | > 2000 nM
O=C(N[C@H]1COc2cc(N3CCNCC3)ccc2C1)c1cnc2c(ccn2C(F)F)c1 [Example 38, (R)-1-(difluoromethyl)-N-(7-(piperazin-1-yl)chroman-3-yl)-1H-pyrrolo[2,3-b]pyridine-5-carboxamide] | 200 to 2000 nM
O=C(N[C@@H]1COc2cc(N3CCNCC3)ccc2C1)c1cnc2c(ccn2C(F)F)c1 [Example 39, (S)-1-(difluoromethyl)-N-(7-(piperazin-1-yl)chroman-3-yl)-1H-pyrrolo[2,3-b]pyridine-5-carboxamide] | > 2000 nM
Cc1ccc2c(N)c(C(=O)N[C@H]3COc4cc(N5C[C@H]6CNC[C@@H]6C5)ccc4C3)sc2n1 [Example 43, 3-amino-N-((R)-7-((3aR,6aR)-hexahydropyrrolo[3,4-c]pyrrol-2(1H)-yl)chroman-3-yl)-6-methylthieno[2,3-b]pyridine-2-carboxamide] | 200 to 2000 nM
